Assay: human study: plasma curcumin after a single oral dose of 500 mg curcumin
Assay type: in vivo
Details: 24 healthy persons, read-out: curcumin concentration in blood plasma
Protocol: The solubilisate according to the invention is further characterized in that the total curcuminoid concentration in human blood plasma, measured one hour after oral administration of 500 mg curcumin in the form of the solubilisate, is approximately 500 ng curcuminoid per ml plasma±100 ng curcuminoid per ml plasma. In contrast, when native curcumin is taken orally in powdered form, only approximately 1.3 ng curcuminoid per ml plasma is achieved after one hour.
The human study on which these values are based was conducted on 24 healthy persons between 19 and 29 years of age, who received a single oral dose of 500 mg native curcumin or curcumin in the form of the solubilisate according to the invention. Blood samples were withdrawn at various times over a period of 24 hours after the curcumin was taken. To minimize the possible concurrent influence of digested food, the test subjects were served standardized meals. One hour after taking the curcumin in native form, less than 1 nmol/l plasma was measured; 8 hours after administration, 2.4 nmol/l was measured; and 24 hours after administration, 2.4 nmol/l was measured. In contrast, for curcumin from the solubilisate according to the invention, one hour after administration, 1,964 nmol/l was measured in the blood plasma; 8 hours after administration, 307.1 nmol/l was measured; and 24 hours after administration, 67.7 nmol/l was measured. A solubilisate containing […] curcumin was used (the commercial product “6% NovaSOL Curcumin” of the applicant).

concentration at 8 h (8 hours after single oral dose of 500 mg): 2.4 nM | concentration at 24 h (24 hours after single oral dose of 500 mg): 2.4 nM | concentration at 1 h (one hour after single oral dose of 500 mg): < 1 nM
Structure (SMILES): COc1cc(/C=C/C(=O)CC(=O)/C=C/c2ccc(O)c(OC)c2)ccc1O [native curcumin, Curcumin]
